Results published in PMC11062899, “De novo development of small cyclic peptides that are orally bioavailable” (Nature Chemical Biology, 2023).
“And” between values parts separate entries of the source, which are not always exact repeats. Equal entries are not always repeated.

Assays:
[1] = Passive artificial membrane permeability (PAMPA)
[2] = biological target: human α-thrombin (Homo sapiens, UniProt P00734); assay: Sub-library screen for active and permeable cyclic peptides (PAMPA plus thrombin inhibition); format: biochemical; settings: crude, slopes normalized to DMSO; for Residual thrombin activity: Top sample: PAMPA acceptor well after 14 h, 5 μM donor; for Residual thrombin activity: Equilibrated sample: donor sample diluted to theoretical equilibrium (1 μM in assay)
Summary of the method: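 Acylated cyclic peptides at 5 μM in PBS pH 7.4 with 5% DMSO were run through PAMPA for 14 h at room temperature. Acceptor wells and a diluted donor sample at 3 μM, representing maximum permeability, were preincubated 10 min with human α-thrombin (6 nM stock). Z-Gly-Gly-Arg-AMC (150 μM stock) fluorescence was then read for 30 min at 25 °C, and inhibition was taken against a no-peptide control.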

## CC(C)NCC(O)COc1cccc2ccccc12 (centres unmarked) [Propranolol, reference compound]
[1]; 50 μM, 12–18 h, acceptor concentration relative to equilibrium
  PAMPA permeability: % permeability: 71 ± 9%
[1]; 50 μM, 13 h (Fig. 5d)
  Permeability% Average: 91.0%
[1]; 50 μM, 13 h (Fig. 5d), listed as Probranolol
  Permeability% (single replicates R1–R3): 87.80% and 90.16% and 95.18%
[1]; PAMPA, pH 7.4
  Papp at 50 μM: 12.3 ×10⁻⁶ cm/s
[1]; top well sample vs theoretical equilibrium sample (TIC), average of R1-R3
  Permeability% Average: 71.1%
[1]; top well sample vs theoretical equilibrium sample (TIC), single replicates R1-R3, listed as Probranolol
  Permeability%: 79.61% and 72.27% and 61.48%

## O=C1C[C@H]2CCCN2C(=O)[C@H](Cc2ccccc2)NC(=O)[C@@H](NC(=O)c2ccc(Cl)s2)CCCSCc2cccc(n2)CSCCN1 [C3-X5-L1]
[2]
  Residual thrombin activity: Top sample: 64.7
  Residual thrombin activity: Equilibrated sample: 75.1

## O=C1C[C@H]2CCCN2C(=O)[C@H](Cc2ccc(Cl)cc2)NC(=O)[C@@H](NC(=O)c2ccc(Cl)s2)CCCSC/C=C/CSCCN1 [C3-X34-L4]
[2]
  Residual thrombin activity: Top sample: 100.7
  Residual thrombin activity: Equilibrated sample: 91.1

## O=C1C[C@H]2CCCN2C(=O)[C@H](Cc2ccccc2)NC(=O)[C@@H](NC(=O)c2ccc(Cl)s2)CSCc2ccc(cc2)CSCCN1 [C1-X5-L3]
[2]
  Residual thrombin activity: Top sample: 88.7
  Residual thrombin activity: Equilibrated sample: 68.9

## O=C1CSCCC[C@H](NC(=O)c2ccc(Cl)s2)C(=O)N[C@@H](Cc2ccc(Cl)cc2)C(=O)N2CCC[C@@H]2CC(=O)NCCSC1 [C3-X34-L7]
[2]
  Residual thrombin activity: Top sample: 103.7
  Residual thrombin activity: Equilibrated sample: 93.3

## Cc1cccc(C[C@@H]2NC(=O)[C@@H](NC(=O)c3ccc(Cl)s3)CSCCS(=O)(=O)CCSCCNC(=O)C[C@H]3CCCN3C2=O)c1 [C1-X37-L2]
[2]
  Residual thrombin activity: Top sample: 93.0
  Residual thrombin activity: Equilibrated sample: 57.2

## N#Cc1ccc(C[C@@H]2NC(=O)[C@@H](NC(=O)c3ccc(Cl)s3)CCSCc3ccc(cc3)CSCCNC(=O)C[C@H]3CCCN3C2=O)cc1 [C2-X35-L3]
[2]
  Residual thrombin activity: Top sample: 101.8
  Residual thrombin activity: Equilibrated sample: 100.4

## N#Cc1ccc(C[C@@H]2NC(=O)[C@@H](NC(=O)c3ccc(Cl)s3)CCCSCc3cccc(n3)CSCCNC(=O)C[C@H]3CCCN3C2=O)cc1 [C3-X35-L1]
[2]
  Residual thrombin activity: Top sample: 93.2
  Residual thrombin activity: Equilibrated sample: 95.8

## O=C1C[C@H]2CCCN2C(=O)[C@@H](Cc2ccccc2)NC(=O)[C@@H](NC(=O)c2ccc(Cl)s2)CCCSCc2ccccc2CSCCN1 [C3-X31-L6]
[2]
  Residual thrombin activity: Top sample: 97.6
  Residual thrombin activity: Equilibrated sample: 87.4

## COc1ccc(C[C@@H]2NC(=O)[C@@H](NC(=O)c3ccc(Cl)s3)CCSCc3ccccc3CSCCNC(=O)C[C@H]3CCCN3C2=O)cc1 [C2-X33-L6]
[2]
  Residual thrombin activity: Top sample: 92.7
  Residual thrombin activity: Equilibrated sample: 95.5

## CN1C(=O)[C@@H](NC(=O)c2ccc(Cl)s2)CSCC(=O)CSCCNC(=O)C[C@H]2CCCN2C(=O)[C@@H]1Cc1ccccc1 [C1-X32-L7]
[2]
  Residual thrombin activity: Top sample: 95.4
  Residual thrombin activity: Equilibrated sample: 96.7
